Usually IC50 stands for the concentration that inhibits the measured activity by half.

SMILES strings stand for the structures.

Sequence of ROCK2 (O75116 whole entry, species assumed): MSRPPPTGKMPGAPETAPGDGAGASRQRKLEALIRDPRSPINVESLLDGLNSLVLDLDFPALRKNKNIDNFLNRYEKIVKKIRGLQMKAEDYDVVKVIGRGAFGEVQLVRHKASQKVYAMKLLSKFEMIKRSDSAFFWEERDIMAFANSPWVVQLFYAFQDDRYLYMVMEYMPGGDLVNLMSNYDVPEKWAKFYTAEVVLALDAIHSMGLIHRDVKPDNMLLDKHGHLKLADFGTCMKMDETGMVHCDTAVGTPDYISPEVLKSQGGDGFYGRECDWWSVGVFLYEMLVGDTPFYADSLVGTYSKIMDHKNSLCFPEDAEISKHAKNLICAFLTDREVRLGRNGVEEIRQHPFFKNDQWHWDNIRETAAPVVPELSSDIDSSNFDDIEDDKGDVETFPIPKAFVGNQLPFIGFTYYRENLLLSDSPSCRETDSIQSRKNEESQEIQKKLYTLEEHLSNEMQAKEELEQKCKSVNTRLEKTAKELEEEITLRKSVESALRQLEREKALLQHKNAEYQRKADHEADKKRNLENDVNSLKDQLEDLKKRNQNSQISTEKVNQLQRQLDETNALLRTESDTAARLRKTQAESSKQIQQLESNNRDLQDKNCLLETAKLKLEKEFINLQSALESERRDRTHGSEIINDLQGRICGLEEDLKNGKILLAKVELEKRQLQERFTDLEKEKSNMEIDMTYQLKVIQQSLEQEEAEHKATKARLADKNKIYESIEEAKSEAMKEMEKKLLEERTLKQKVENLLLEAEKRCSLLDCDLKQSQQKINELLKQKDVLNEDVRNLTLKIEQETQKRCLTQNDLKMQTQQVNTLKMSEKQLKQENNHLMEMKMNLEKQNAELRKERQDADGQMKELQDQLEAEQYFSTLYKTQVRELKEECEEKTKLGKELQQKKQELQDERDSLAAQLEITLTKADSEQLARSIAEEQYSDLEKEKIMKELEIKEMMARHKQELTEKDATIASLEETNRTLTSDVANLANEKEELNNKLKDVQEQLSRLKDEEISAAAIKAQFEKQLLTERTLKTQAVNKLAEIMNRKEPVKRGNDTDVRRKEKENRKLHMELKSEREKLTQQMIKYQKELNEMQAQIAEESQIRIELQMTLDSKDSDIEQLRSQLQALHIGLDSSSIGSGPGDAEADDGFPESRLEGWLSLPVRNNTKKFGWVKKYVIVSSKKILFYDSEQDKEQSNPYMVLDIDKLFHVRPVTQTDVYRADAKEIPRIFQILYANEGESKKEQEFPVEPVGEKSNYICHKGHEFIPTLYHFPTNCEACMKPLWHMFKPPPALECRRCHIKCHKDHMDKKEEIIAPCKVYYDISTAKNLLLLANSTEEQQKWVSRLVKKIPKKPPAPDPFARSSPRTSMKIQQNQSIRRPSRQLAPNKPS

This experiment addresses ROCK2 (Homo sapiens, UniProt O75116). Briefly: ROCK assay: phosphorylation of FITC peptide substrate, LABCHIP 3000 mobility shift. In kind it is biochemical. The settings on record: 5 μM ATP, 1.5 μM peptide substrate; read-out: ROCK2 Activity (ROCK IC50 range). The method, boiled down: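 Rho kinase variant phosphorylates 1.5 μM FITC-AHA-AKRRRLSSLRA-OH with 5 μM ATP in 20 mM HEPES pH 7.5, 20 mM MgCl2, 0.015% Brij-35, 4 mM DTT, DMSO <2%. EDTA stops the reaction, and phospho and non-phospho peptides are resolved by LabChip 3000 mobility shift. IC50 from dose-response curve fit.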
`CC1(C)CN(CCOc2ccc3c(C(=O)NC4CC5(C4)CC(c4n[nH]c(=O)c6ccccc46)C5)cnn3c2)CCC1O` [Example 184, 6-(2-(4-hydroxy-3,3-dimethylpiperidin-1-yl)ethoxy)-N-((aR)-6-(4-oxo-3,4-dihydrophthalazin-1-yl)spiro[3.3]heptan-2-yl)pyrazolo[1,5-a]pyridine-3-carboxamide]: the IC50 was 0.2 to 2 nM.

As for `O=C(NC1CC2(C1)CC(c1n[nH]c(=O)c3ccccc13)C2)c1cnn2cc(OCCN3CCC(F)(F)C3)ccc12` [Example 185, 6-(2-(3,3-difluoropyrrolidin-1-yl)ethoxy)-N-((aR)-6-(4-oxo-3,4-dihydrophthalazin-1-yl)spiro[3.3]heptan-2-yl)pyrazolo[1,5-a]pyridine-3-carboxamide], the IC50 lay in the range of 0.2 to 2 nM.

Take `O=C(NC1CC2(C1)CC(c1n[nH]c(=O)c3ccccc13)C2)c1cnn2cc(OCCN3CCC3)ccc12` [Example 186, 6-(2-(azetidin-1-yl)ethoxy)-N-((aR)-6-(4-oxo-3,4-dihydrophthalazin-1-yl)spiro[3.3]heptan-2-yl)pyrazolo[1,5-a]pyridine-3-carboxamide]: the IC50 was 2.01 to 5 nM.

As for `CC1(C)CN(CCOc2ccc3c(C(=O)NC4CC5(C4)CC(c4n[nH]c(=O)c6ccccc46)C5)cnn3c2)CCO1` [Example 187, 6-(2-(2,2-dimethylmorpholino)ethoxy)-N-((aR)-6-(4-oxo-3,4-dihydrophthalazin-1-yl)spiro[3.3]heptan-2-yl)pyrazolo[1,5-a]pyridine-3-carboxamide], the IC50 lay within 0.2 to 2 nM.

With `CN1CCN(CCOc2ccc3c(C(=O)NC4CC5(C4)CC(c4n[nH]c(=O)c6ccccc46)C5)cnn3c2)CC1` [Example 188, 6-(2-(4-methylpiperazin-1-yl)ethoxy)-N-((aR)-6-(4-oxo-3,4-dihydrophthalazin-1-yl)spiro[3.3]heptan-2-yl)pyrazolo[1,5-a]pyridine-3-carboxamide], the IC50 is 0.2 to 2 nM.

As for `O=C(NC1CC2(C1)CC(c1n[nH]c(=O)c3ccccc13)C2)c1cnn2cc(OCCN3CCC(F)C3)ccc12` [Example 189, 6-(2-((R)-3-fluoropyrrolidin-1-yl)ethoxy)-N-((aR)-6-(4-oxo-3,4-dihydrophthalazin-1-yl)spiro[3.3]heptan-2-yl)pyrazolo[1,5-a]pyridine-3-carboxamide], the IC50 lay within 0.2 to 2 nM.

In the case of `O=C(NC1CC2(C1)CC(c1n[nH]c(=O)c3ccccc13)C2)c1cnn2cc(OCCN3CCC(F)C3)ccc12` [Example 190, 6-(2-((S)-3-fluoropyrrolidin-1-yl)ethoxy)-N-((aR)-6-(4-oxo-3,4-dihydrophthalazin-1-yl)spiro[3.3]heptan-2-yl)pyrazolo[1,5-a]pyridine-3-carboxamide], the IC50 was in the range of 0.2 to 2 nM.

`O=C(N[C@H]1CC2(C1)C[C@H](c1n[nH]c(=O)c3ccccc31)C2)c1cnn2cc(CCCN3CCOCC3)ccc12` (stereo partly drawn) [Example 191, 6-(3-morpholinopropyl)-N-((aR)-6-(4-oxo-3,4-dihydrophthalazin-1-yl)spiro[3.3]heptan-2-yl)pyrazolo[1,5-a]pyridine-3-carboxamide]: the IC50 lay within 2.01 to 5 nM.

As to `O=C(NC1CC2(C1)CC(c1n[nH]c(=O)c3ccccc13)C2)c1cnn2cc(CCCN3CCCC3)ccc12` [Example 192, N-((aR)-6-(4-oxo-3,4-dihydrophthalazin-1-yl)spiro[3.3]heptan-2-yl)-6-(3-(pyrrolidin-1-yl)propyl)pyrazolo[1,5-a]pyridine-3-carboxamide], the IC50 was 2.01 to 5 nM.

For `CN(C)CCCc1ccc2c(C(=O)NC3CC4(C3)CC(c3n[nH]c(=O)c5ccccc35)C4)cnn2c1` [Example 193, 6-(3-(dimethylamino)propyl)-N-((aR)-6-(4-oxo-3,4-dihydrophthalazin-1-yl)spiro[3.3]heptan-2-yl)pyrazolo[1,5-a]pyridine-3-carboxamide], the IC50 is 5.1 to 15 nM.

With `O=C(NC1CC2(C1)CC(c1n[nH]c(=O)c3ccccc13)C2)c1cnn2cc(CCCNC3CC3)ccc12` (centres unmarked) [Example 194], the 50% inhibitory concentration (IC50) is 5.1 to 15 nM.

(Values after patent publication US9902702B2, “Spirocycloheptanes as inhibitors of rock” (BRISTOL-MYERS SQUIBB COMPANY, priority 2014, dated 2018).)
